The results in this text go back to PubChem BioAssay AID1259411 (Chemical Carcinogenesis Research Information System (CCRIS), 2018).

In this data set the test system is rodent carcinogenicity bioassays, tumor incidence. As to the kind of experiment: CCRIS carcinogenicity studies. The method in brief:
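Archive of carcinogenicity, mutagenicity, tumor promotion and tumor inhibition results drawn from journals, NCI reports and other sources, expert-reviewed; covers 1985-2011 and is no longer updated.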

SMILES strings stand for the structures. Calls of active or inactive are those of the source. How the calls were made is not given here.

With `COP(=O)(OC)OC`, the carcinogen call is “active; positive” (Species: MOUSE, Strain/Sex: B6C3F1/FEMALE, Route: GAVAGE, Dose: 0, 250, 500 MG/KG 3/WK FOR 103 WK, Dose: 0, 250, 500 MG/KG 3/WK FOR 103 WK, Tumor Site: Type of Lesion: UTERUS (ENDOMETRIUM): ADENOCARCINOMA (NOS)); “inactive; negative” (Species: MOUSE, Strain/Sex: B6C3F1/MALE, Route: GAVAGE, Dose: 0, 250, 500 MG/KG 3/WK FOR 103 WK, Dose: 0, 250, 500 MG/KG 3/WK FOR 103 WK); “inactive; negative” (Species: RAT, Strain/Sex: F344/FEMALE, Route: GAVAGE, Dose: 0, 50, 100 MG/KG 3/WK FOR 104 WK (STUDY DURATION: 105 WK), Dose: 0, 50, 100 MG/KG 3/WK FOR 104 WK (STUDY DURATION: 105 WK)); “inactive; negative” (Species: RAT, Strain/Sex: WISTAR/FEMALE, Route: ORAL, Dose: 0, 1, 10, 100 MG/KG/D IN DRINKING WATER FOR DURATION OF STUDY, HIGH DOSE REDUCED TO 50 MG/KG IN WK 54 (STUDY DURATION: 3, Dose: 0, 1, 10, 100 MG/KG/D IN DRINKING WATER FOR DURATION OF STUDY, HIGH DOSE REDUCED TO 50 MG/KG IN WK 54 (STUDY DURATION: 3); “inactive; negative” (Species: RAT, Strain/Sex: WISTAR/MALE, Route: ORAL, Dose: 0, 1, 10, 100 MG/KG/D IN DRINKING WATER FOR DURATION OF STUDY, HIGH DOSE REDUCED TO 50 MG/KG IN WK 54 (STUDY DURATION: 3, Dose: 0, 1, 10, 100 MG/KG/D IN DRINKING WATER FOR DURATION OF STUDY, HIGH DOSE REDUCED TO 50 MG/KG IN WK 54 (STUDY DURATION: 3).
`CC(C)=CCl`: the carcinogen call (Species: MOUSE, Strain/Sex: B6C3F1/FEMALE, Route: GAVAGE, Dose: 0, 100, 200 MG/KG IN CORN OIL 5 D/WK FOR 102 WK, Dose: 0, 100, 200 MG/KG IN CORN OIL 5 D/WK FOR 102 WK, Tumor Site: Type of Lesion: FORESTOMACH: SQUAMOUS CELL CARCINOMA, SQUAMOUS CELL PAPILLOMA) was “active; positive”; the carcinogen call (Species: MOUSE, Strain/Sex: B6C3F1/MALE, Route: GAVAGE, Dose: 0, 100, 200 MG/KG IN CORN OIL 5 D/WK FOR 102 WK, Dose: 0, 100, 200 MG/KG IN CORN OIL 5 D/WK FOR 102 WK, Tumor Site: Type of Lesion: FORESTOMACH: SQUAMOUS CELL CARCINOMA, SQUAMOUS CELL PAPILLOMA, PREPUTIAL GLAND: SQUAMOUS CELL CARCINOMA) was “active; positive”; the carcinogen call (Species: RAT, Strain/Sex: F344/FEMALE, Route: GAVAGE, Dose: 0, 100, 200 MG/KG IN CORN OIL 5 D/WK FOR 103 WK, Dose: 0, 100, 200 MG/KG IN CORN OIL 5 D/WK FOR 103 WK, Tumor Site: Type of Lesion: NASAL CAVITY: CARCINOMA (NOS), CARCINOMA (NOS) OR SQUAMOUS CELL CARCINOMA, ADENOCARCINOMA, ESOPHAGUS: SQUAMOUS CELL CARC) was “active; positive”; the carcinogen call (Species: RAT, Strain/Sex: F344/MALE, Route: GAVAGE, Dose: 0, 100, 200 MG/KG IN CORN OIL 5 D/WK FOR 103 WK, Dose: 0, 100, 200 MG/KG IN CORN OIL 5 D/WK FOR 103 WK, Tumor Site: Type of Lesion: NASAL CAVITY: CARCINOMA (NOS), SQUAMOUS CELL CARCINOMA, ADENOCARCINOMA, ESOPHAGUS: SQUAMOUS CELL PAPILLOMA, SQUAMOUS CEL) was “active; positive”.
In the case of `Nc1ccn([C@@H]2O[C@H](CO)[C@@H](O)C2O)c(=O)n1` (stereo partly specified), the carcinogen call was “inactive; negative” (Species: RAT, Strain/Sex: SPRAGUE-DAWLEY/FEMALE, Route: INTRAPERITONEAL, Dose: 0, 5, 25 MG/KG IN PHYSIOLOGICAL SALINE 5/WK FOR 72 WK (STUDY DURATION: LIFETIME), Dose: 0, 5, 25 MG/KG IN PHYSIOLOGICAL SALINE 5/WK FOR 72 WK (STUDY DURATION: LIFETIME)); “inactive; negative” (Species: RAT, Strain/Sex: SPRAGUE-DAWLEY/FEMALE, Route: INTRAPERITONEAL, Dose: 0, 500, 1500 MG/KG IN PHYSIOLOGICAL SALINE ON D 1, 3, 5 WITHIN 3 MO, CYCLE REPEATED 6 TIMES (STUDY DURATION: LIFETIME), Dose: 0, 500, 1500 MG/KG IN PHYSIOLOGICAL SALINE ON D 1, 3, 5 WITHIN 3 MO, CYCLE REPEATED 6 TIMES (STUDY DURATION: LIFETIME)); “inactive; negative” (Species: RAT, Strain/Sex: SPRAGUE-DAWLEY/MALE, Route: INTRAPERITONEAL, Dose: 0, 5, 25 MG/KG IN PHYSIOLOGICAL SALINE 5/WK FOR 72 WK (STUDY DURATION: LIFETIME), Dose: 0, 5, 25 MG/KG IN PHYSIOLOGICAL SALINE 5/WK FOR 72 WK (STUDY DURATION: LIFETIME)); “inactive; negative” (Species: RAT, Strain/Sex: SPRAGUE-DAWLEY/MALE, Route: INTRAPERITONEAL, Dose: 0, 500, 1500 MG/KG IN PHYSIOLOGICAL SALINE ON D 1, 3, 5 WITHIN 3 MO, CYCLE REPEATED 6 TIMES (STUDY DURATION: LIFETIME), Dose: 0, 500, 1500 MG/KG IN PHYSIOLOGICAL SALINE ON D 1, 3, 5 WITHIN 3 MO, CYCLE REPEATED 6 TIMES (STUDY DURATION: LIFETIME)).
Take `S=C=NCCc1ccccc1`: the carcinogen call is, setting by setting: (Species: RAT, Strain/Sex: F344/MALE, Route: DIET (ORAL), Dose: 0.1% FOR 12 WK (STUDY DURATION: 48 WK)) “inactive; negative (bladder hyperplasias observed)”; (Species: RAT, Strain/Sex: F344/MALE, Route: DIET (ORAL), Dose: 0.1% FOR 24 WK (STUDY DURATION: 48 WK)) “inactive; negative (bladder hyperplasias observed)”; (Species: RAT, Strain/Sex: F344/MALE, Route: DIET (ORAL), Dose: 0.1% FOR 48 WK (STUDY DURATION: 48 WK)) “inactive; negative (bladder hyperplasias and dysplasias observed)”; (Species: RAT, Strain/Sex: F344/MALE, Route: ORAL, Dose: 0.1% IN DIET FOR 32 WK, THEN SWITCHED TO BASAL DIET FOR 16 WK (STUDY DURATION: 48 WK), Tumor Site: Type of Lesion: URINARY BLADDER: CARCINOMA) “active; positive”; (Species: RAT, Strain/Sex: F344/MALE, Route: ORAL, Dose: 0.1% IN DIET FOR 48 WK (STUDY DURATION: 48 WK), Tumor Site: Type of Lesion: URINARY BLADDER: CARCINOMA) “active; positive”.
Consider `CC(C)CCC[C@@H](C)[C@H]1CC[C@H]2[C@@H]3C[C@@H]4O[C@@]45C[C@@H](O)CC[C@]5(C)[C@H]3CC[C@]12C`, for which the carcinogen call (Species: RAT, Strain/Sex: STRAIN-CD/FEMALE, Route: INJECTION, Dose: 0, 12.3 UMOL (TOTAL DOSE) 1/6 INJECTED UNDER EACH OF 3 THORACIC AND 3 INGUINAL NIPPLES ONCE (STUDY DURATION: 44 WK)) was “inactive; negative”.
As for `C=CC(OCC)OCC`, the carcinogen call was “inactive; negative” (Species: HAMSTER, Strain/Sex: SYRIAN/MALE, Route: GAVAGE, Dose: 0, 2 MG/WK FOR 54 OR 64 WK (STUDY DURATION: 92 WK)); “inactive; negative” (Species: RAT, Strain/Sex: F344/FEMALE, Route: ORAL, Dose: 0, 470, 1200 MG/L IN DRINKING WATER 5 D/WK FOR 100 WK (STUDY DURATION: 130 WK), Dose: 0, 470, 1200 MG/L IN DRINKING WATER 5 D/WK FOR 100 WK (STUDY DURATION: 130 WK)); “inactive; negative” (Species: RAT, Strain/Sex: F344/MALE, Route: ORAL, Dose: 0, 470, 1200 MG/L IN DRINKING WATER 5 D/WK FOR 100 WK (STUDY DURATION: 130 WK), Dose: 0, 470, 1200 MG/L IN DRINKING WATER 5 D/WK FOR 100 WK (STUDY DURATION: 130 WK)).
`C[C@H]1CCCC(=O)CCC/C=C/c2cc(O)cc(O)c2C(=O)O1`: the carcinogen call (Species: MOUSE, Strain/Sex: B6C3F1/FEMALE, Route: ORAL, Dose: 0, 50, 100 PPM IN DIET, Dose: 0, 50, 100 PPM IN DIET, Tumor Site: Type of Lesion: LIVER: HEPATOCELLULAR ADENOMA, CARCINOMA, PITUITARY GLAND: ADENOMA, CARCINOMA) is “active; positive”; the carcinogen call (Species: MOUSE, Strain/Sex: B6C3F1/MALE, Route: ORAL, Dose: 0, 50, 100 PPM IN DIET, Dose: 0, 50, 100 PPM IN DIET, Tumor Site: Type of Lesion: PITUITARY GLAND: ADENOMA, CARCINOMA) was “active; positive”; the carcinogen call (Species: RAT, Strain/Sex: F344/FEMALE, Route: ORAL, Dose: 0, 25, 50 PPM IN DIET, Dose: 0, 25, 50 PPM IN DIET) was “inactive; negative”; the carcinogen call (Species: RAT, Strain/Sex: F344/MALE, Route: ORAL, Dose: 0, 25, 50 PPM IN DIET, Dose: 0, 25, 50 PPM IN DIET) was “inactive; negative”.
